In data set [1] the target is T1, Potassium channel subfamily K member 13 (Homo sapiens, UniProt Q9HB14).
T1 sequence (Q9HB14 whole entry): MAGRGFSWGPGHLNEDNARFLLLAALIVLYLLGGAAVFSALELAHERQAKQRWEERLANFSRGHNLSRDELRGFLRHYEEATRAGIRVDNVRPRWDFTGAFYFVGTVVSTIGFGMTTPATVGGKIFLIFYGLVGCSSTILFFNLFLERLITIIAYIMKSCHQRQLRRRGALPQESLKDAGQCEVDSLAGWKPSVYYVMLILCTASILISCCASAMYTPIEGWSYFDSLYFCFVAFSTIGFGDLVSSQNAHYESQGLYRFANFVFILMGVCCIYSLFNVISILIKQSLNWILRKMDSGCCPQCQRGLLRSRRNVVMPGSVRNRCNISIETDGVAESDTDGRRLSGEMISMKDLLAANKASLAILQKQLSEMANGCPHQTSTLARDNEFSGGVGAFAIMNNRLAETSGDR
Put plainly: Inhibition of human KCNK13 transfected in HEK293 cells. In kind it is cell-based.

Data set [2] can be described thus: Volume of distribution at steady state in Cynomolgus monkey at 1 mg/kg, iv. In kind it is ADME, organism-based, Macaca fascicularis. Particulars: in vivo, read-out: Vdss.
Data set [3] is described as follows: Tmax in Cynomolgus monkey at 3 mg/kg, po. Format: ADME, organism-based, Macaca fascicularis. The following applies: in vivo.
The target of data set [4] is T2, Potassium channel subfamily K member 13 (Homo sapiens) (UniProt Q9HB14).
T2 sequence (whole entry): T1 sequence (Q9HB14 whole entry)
Put plainly: Inhibition of human KCNK13 transfected in HEK293 cells assessed as reduction in thallium influx incubated for 15 mins in dark by FLIPR assay relative to control. In kind it is cell-based.

A short description of data set [5]: AUC (0 to infinity) in Beagle dog at 1 mg/kg, iv. The following applies: in vivo. Format: ADME, organism-based, Canis lupus familiaris.
Data set [6] can be described thus: Tmax in Beagle dog at 10 mg/kg, po. In kind it is ADME, organism-based, Canis lupus familiaris. Particulars: in vivo.
A short description of data set [7]: Metabolic stability in mouse liver microsomes assessed as intrinsic clearance. In kind it is ADME, Microsome. The following applies: read-out: CLH.
For data set [8], the target named is T3, Potassium channel subfamily K member 13 (Mus musculus, UniProt Q8R1P5).
T3 sequence (Q8R1P5 whole entry): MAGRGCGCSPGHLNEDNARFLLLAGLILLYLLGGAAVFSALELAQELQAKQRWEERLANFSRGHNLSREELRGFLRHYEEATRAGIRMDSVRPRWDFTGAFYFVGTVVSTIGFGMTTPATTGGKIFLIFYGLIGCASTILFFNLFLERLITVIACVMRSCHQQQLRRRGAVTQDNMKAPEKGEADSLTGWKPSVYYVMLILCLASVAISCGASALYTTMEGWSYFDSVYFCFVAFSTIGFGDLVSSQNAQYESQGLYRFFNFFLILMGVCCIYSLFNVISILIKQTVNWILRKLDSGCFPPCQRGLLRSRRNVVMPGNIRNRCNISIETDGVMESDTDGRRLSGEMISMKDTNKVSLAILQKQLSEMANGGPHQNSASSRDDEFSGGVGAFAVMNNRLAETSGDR
The experiment in a line: Inhibition of mouse KCNK13 transfected in HEK293 cells. In kind it is cell-based.

A short description of data set [9]: Half life in Cynomolgus monkey at 1 mg/kg, iv. In kind it is ADME, organism-based, Macaca fascicularis. The following applies: in vivo.
Data set [10] can be described thus: Half life in Sprague-Dawley rat at 3 mg/kg, po. In kind it is ADME, organism-based. The following applies: in vivo.
A short description of data set [11]: Kinetic aqueous solubility of compound at pH 7.4. Format: physicochemical. The following applies: buffer, read-out: Kinetic_solubility.
Data set [12] in a line: Metabolic stability in rat liver microsomes assessed as intrinsic clearance. Format: ADME, Microsome. Particulars: read-out: CLH. On the technique in general: Microsomes from liver hold many membrane-bound enzymes, among them those of drug oxidation.
Data set [13] is described as follows: Unbound drug concentration in C57BL/6 mouse plasma at 10 mg/kg, po measured after 4 hrs by LC-MS/MS analysis. Format: ADME, organism-based. Particulars: in vivo.
Data set [14] can be described thus: Metabolic stability in human liver microsomes assessed as intrinsic clearance. Particulars: read-out: CLH. In kind it is ADME, Microsome.
Data set [15] is described as follows: Cmax in Cynomolgus monkey at 3 mg/kg, po. Format: ADME, organism-based, Macaca fascicularis. The following applies: in vivo.
Data set [16] can be described thus: C0 in Cynomolgus monkey at 1 mg/kg, iv. Particulars: in vivo. Format: ADME, organism-based, Macaca fascicularis.
Data set [17] is described as follows: Oral bioavailability in Sprague-Dawley rat at 3 mg/kg. In kind it is ADME, organism-based. The following applies: in vivo.

In brackets after ≈: the same amount, converted by molar mass. Bounds are passed on as bounds.

The term IC50 denotes the point on the concentration scale where inhibition reaches its midpoint. By Tmax is commonly meant the time at which the peak concentration occurs. A word on the AUC: it is concentration integrated over time. As a reminder, the half-life is the time in which the quantity being followed falls by half. What is called Cmax is the maximum level reached in the sampled fluid or tissue. Broadly, the bioavailability is the share of a dose that reaches the circulation, judged against a reference dose that is usually intravenous.

As for `Nc1nonc1-c1nc2cccc(F)c2n1Cc1cccnn1`, the IC50 was 41 nM in data set [1] and 28 nM in data set [8]. The Vd in [2] came out at 1.45 L/kg. Moreover, the values for the Tmax in [3] and in [6] were 1 h and 1.25 h, respectively. In addition, the Imax in data set [4] was found to be 100%. Further, the AUC in [5] turned out to be 438 ng·h/mL. The microsomal CLint in data set [7] is under 9.6 µL/min/mg; in [12], 9.9 µL/min/mg; in data set [14] it was under 9.6 µL/min/mg. In addition, the half-life in data set [9] is 66 min; in data set [10], 120 min. Also, the solubility kinetic in data set [11] was found to be 94 µM (≈ 29.3 µg/mL). Further, the “Cp(f)” value in [13] stood at 0.372 µM. Further, in data set [15], the Cmax is 165 ng/mL. The same molecule showed a C0 in data set [16] of 896 ng/mL. Besides, the bioavailability in data set [17] turned out to be 87%.

The values above are taken from ChEMBL document CHEMBL5634193, “Discovery of CVN293, a Brain Permeable KCNK13 (THIK-1) Inhibitor Suitable for Clinical Assessment” (ACS Med Chem Lett, 2024).
